Assay results: DBAASP
Values after ≈ are worked out from the molar mass of the structure shown.

What was measured:
Assay in all cases: ≥ marks a high value that may be exact or a test limit, other limits are often not marked, values filed in µg/mL are converted to µM
[1] = test system: Aeromonas salmonicida NCIMB 1102
[2] = test system: Bacillus subtilis IAM 1026
[3] = test system: Escherichia coli JCM 1649
[4] = test system: Photobacterium damselae subsp. piscicida Sp 9587
Salmonella typhimurium = test system: Salmonella typhimurium
[5] = test system: Shewanella putrefaciens IAM 1509
[6] = test system: Staphylococcus aureus IAM 1011
[7] = test system: Vibrio anguillarum NCIMB 829
[8] = test system: Vibrio parahaemolyticus Vp+1
[9] = test system: Candida albicans ATCC 36232
[10] = test system: Escherichia coli ATCC 2592
[11] = test system: Micrococcus luteus ATCC 9341
[12] = test system: Proteus vulgaris ATCC 6380
[13] = test system: Pseudomonas aeruginosa ATCC 9027
[14] = test system: Staphylococcus aureus ATCC 6538
Staphylococcus aureus = test system: Staphylococcus aureus
[15] = test system: Bacillus subtilis IFO 3134
[16] = test system: Escherichia coli IFO 12734
[17] = test system: Pseudomonas aeruginosa IFO 12582
[18] = test system: Staphylococcus aureus IFO 12732
[19] = test system: Staphylococcus aureus A170
[20] = test system: Staphylococcus epidermidis
Cupriavidus necator H16 = test system: Cupriavidus necator H16
[21] = test system: Escherichia coli BL21(DE3)
Escherichia coli JM109 = test system: Escherichia coli JM109
[22] = test system: Pseudomonas putida GPp104
[23] = test system: Aspergillus niger CECT 2694
[24] = test system: Fusarium oxysporum f. sp. lycopersici ATCC 201829
[25] = test system: Penicillium expansum EPS 26
[26] = test system: Rhizopus stolonifer CECT 2344

SMILES: CC[C@H](C)[C@H](NC(=O)[C@H](C)NC(=O)[C@H](Cc1cnc[nH]1)NC(=O)[C@@H](NC(=O)[C@@H](NC(=O)[C@H](Cc1cnc[nH]1)NC(=O)[C@H](Cc1cnc[nH]1)NC(=O)[C@@H](NC(=O)[C@@H](N)Cc1ccccc1)[C@@H](C)CC)[C@@H](C)CC)C(C)C)C(=O)NCC(=O)N[C@@H](CCCN=C(N)N)C(=O)N[C@@H](CC(C)C)C(=O)N[C@@H](Cc1ccccc1)C(N)=O [FIHHIVHAIGRLF]
- MIC [1]: 16 µM (≈ 25 µg/mL)
- MIC [2]: 8.01 µM (≈ 12.5 µg/mL)
- MIC [3]: ≥ 32.1 µM
- MIC [4]: 8.01 µM (≈ 12.5 µg/mL)
- MIC (Salmonella typhimurium): ≥ 32.1 µM
- MIC [5]: 4.01 µM (≈ 6.25 µg/mL)
- MIC [6]: 2.01 µM (≈ 3.13 µg/mL)
- MIC [7]: ≥ 32.1 µM
- MIC [8]: ≥ 32.1 µM

SMILES: CC[C@H](C)[C@H](NC(=O)[C@H](CCCCN)NC(=O)[C@@H]1CCCN1C(=O)[C@H](CC(C)C)NC(=O)[C@H](Cc1ccccc1)NC(=O)[C@H](CC(N)=O)NC(=O)[C@H](C)NC(=O)[C@H](C)NC(=O)[C@H](CC(C)C)NC(=O)CN)C(=O)N[C@@H](Cc1ccccc1)C(=O)N[C@@H](CS)C(=O)N[C@@H](CCCCN)C(=O)N[C@H](C(=O)N[C@H](C(=O)N[C@@H](CCCN=C(N)N)C(=O)N[C@@H](CCCCN)C(=O)N[C@@H](CS)C(N)=O)[C@@H](C)O)[C@@H](C)CC [GLAANFLPKIFCKITRKC]
- MIC [9]: 12.4 µM (≈ 25 µg/mL)
- MIC [10]: 12.4 µM (≈ 25 µg/mL)
- MIC [11]: 6.18 µM (≈ 12.5 µg/mL)
- MIC [12]: ≥ 49.4 µM
- MIC [13]: 6.18 µM (≈ 12.5 µg/mL)
- MIC [14]: 12.4 µM (≈ 25 µg/mL)
- MIC (Staphylococcus aureus): 49.4 µM (≈ 100 µg/mL)

SMILES: CC[C@H](C)[C@H](NC(=O)[C@H](C)NC(=O)[C@@H]1CCCN1C(=O)[C@@H](NC(=O)[C@@H](NC(=O)[C@H](Cc1cnc[nH]1)NC(=O)[C@H](C)NC(=O)[C@H](C)NC(=O)[C@@H](NC(=O)[C@H](CCCCN)NC(=O)[C@H](C)NC(=O)[C@H](CC(C)C)NC(=O)[C@@H](NC(=O)CNC(=O)[C@H](Cc1ccccc1)NC(=O)[C@@H](N)CC(C)C)C(C)C)C(C)C)C(C)C)C(C)C)C(=O)N[C@@H](C)C(=O)N[C@@H](CCC(=O)O)C(=O)N[C@@H](Cc1cnc[nH]1)C(=O)N[C@@H](Cc1ccccc1)C(N)=O [LFGVLAKVAAHVVPAIAEHF]
- MIC [15]: ≥ 64 µM
- MIC [16]: ≥ 64 µM
- MIC [17]: ≥ 64 µM
- MIC [18]: ≥ 64 µM

SMILES: CC[C@H](C)[C@H](NC(=O)[C@H](C)NC(=O)[C@H](CC(C)C)NC(=O)[C@@H](N)CC(C)C)C(=O)N[C@H](C(=O)NCC(=O)N[C@@H](CC(N)=O)C(=O)N[C@@H](CC(C)C)C(=O)N[C@@H](CC(C)C)C(=O)N[C@@H](CCCCN)C(=O)N[C@@H](CO)C(=O)N[C@@H](CC(C)C)C(=O)N[C@@H](CC(C)C)C(=O)O)C(C)C [LLAIVGNLLKSLL]
- MIC [19]: 7.32 µM (≈ 10 µg/mL)
- MIC [20]: 7.32 µM (≈ 10 µg/mL)

SMILES: CC[C@H](C)[C@H](NC(=O)[C@H](Cc1ccc(O)cc1)NC(=O)[C@@H](NC(=O)[C@@H]1CCCN1C(=O)[C@H](CCCN=C(N)N)NC(=O)[C@H](CCCN=C(N)N)NC(=O)[C@@H](NC(=O)[C@@H](N)CCCN=C(N)N)C(C)C)C(C)C)C(=O)N1CCC[C@H]1C(=O)N[C@@H](CCC(N)=O)C(=O)N1CCC[C@H]1C(=O)N[C@@H](CCCN=C(N)N)C(=O)N1CCC[C@H]1C(=O)N1CCC[C@H]1C(=O)N[C@@H](Cc1cnc[nH]1)C(=O)N1CCC[C@H]1C(=O)N[C@@H](CCCN=C(N)N)C(=O)N[C@@H](CC(C)C)C(=O)O [RVRRPVYIPQPRPPHPRL]
- MIC (Cupriavidus necator H16): 10 µM (≈ 22.3 µg/mL)
- MIC [21]: 0.313 µM (≈ 0.699 µg/mL)
- MIC (Escherichia coli JM109): 2.5 µM (≈ 5.59 µg/mL)
- MIC [22]: 3.13 µM (≈ 6.99 µg/mL)

SMILES: CC[C@H](C)[C@H](NC(=O)[C@H](CCCCN)NC(=O)[C@H](CCCCN)NC(=O)[C@H](Cc1ccccc1)NC(=O)[C@H](CC(C)C)NC(=O)[C@H](CCCCN)NC(=O)[C@@H](N)Cc1c[nH]c2ccccc12)C(=O)N[C@@H](CC(C)C)C(=O)N[C@@H](CCCCN)C(=O)N[C@@H](CCCCN)C(=O)N[C@@H](CC(C)C)C(N)=O [WKLFKKILKKL]
- MIC [23]: 22.4 µM (≈ 32.3 µg/mL)
- MIC [24]: 1.73 µM (≈ 2.5 µg/mL)
- MIC [25]: ≥ 70.7 µM
- MIC [26]: ≥ 35.4 µM
